{"source": "patent US11007183B2", "about": "“Cancer treatments using combinations of PI3K/Akt pathway and ERK inhibitors” (BIOMED VALLEY DISCOVERIES, INC., priority 2013, dated 2021)", "assay": "Toxicity (body weight, deaths, clinical signs) in the HCT116 xenograft study", "format": "in vivo, mice", "conditions": "for Deaths NTR / Deaths TR: po, 45 days", "experimental": "Animals were weighed daily on Days 1-5, then twice per week until completion of the study. The mice were observed frequently for overt signs of any adverse, TR side effects, and clinical signs were recorded when observed. Individual BW loss was monitored as per protocol, and any animal whose weight exceeded the limits for acceptable BW loss was euthanized. Group mean BW loss also was monitored as per protocol. Dosing was to be suspended in any group that exceeded the limits for acceptable mean BW loss. If mean BW recovered, then dosing was to be resumed in that group, but at a lower dosage or less frequent dosing schedule. Acceptable toxicity for the maximum tolerated dose (MTD) was defined as a group mean BW loss of less than 20% during the study and not more than 10% TR deaths. A death was classified as TR if attributable to treatment side effects as evidenced by clinical signs and/or necropsy, or may also be classified as TR if due to unknown causes during the dosing period or within 14 days of the last dose. A death was classified as NTR if there was no evidence that death was related to treatment side effects. NTR deaths may be further characterized based on cause of death. A death was classified as NTRa if it resulted from an accident or human error. […] A death was classified as NTRu if the cause of death was unknown and there was no available evidence of death related to treatment side effects, metastasis, accident or human error, although death due to treatment side effects cannot be excluded.", "note": "Entries after “also recorded” stand apart in the source; their conditions may differ."}
{"smiles": "CC(C)Nc1cc(-c2c[nH]c(C(=O)N[C@H](CO)c3cccc(Cl)c3)c2)c(Cl)cn1", "note": "[BVD-523]", "values": [{"measurement": "Tolerability relative to the MTD", "setting": "Group 5: BVD-523 100 mg/kg p.o. bid to end, 100 mg/kg", "result": "above the MTD; also recorded: above the maximum tolerated dose"}, {"measurement": "Adverse clinical signs", "setting": "mouse, in vivo, 50 mg/kg", "result": "no noteworthy adverse clinical signs"}, {"measurement": "Deaths NTR", "setting": "mouse, in vivo, 50 mg/kg", "result": 0}, {"measurement": "Deaths TR", "setting": "mouse, in vivo, 50 mg/kg", "result": 0}, {"measurement": "Deaths NTR", "setting": "mouse, in vivo, 100 mg/kg", "result": 0}, {"measurement": "Deaths TR", "setting": "mouse, in vivo, 100 mg/kg", "result": 4}]}
